Patent US7622470B2, “Treatment of T-cell lymphoma using 10-propargyl-10-deazaaminopterin” (Sloan-Kettering Institute for Cancer Research, priority 2004, dated 2009)
Entries after “also recorded” stand apart in the source; their conditions may differ. Where two headings read alike, the source gives them in different places.

What was measured:
[1] = test system: T cell lymphoma; format: in vivo
Procedure: Each of these patients was also treated with folic acid (1 mg/m^2 daily starting 1 week prior to treatment with PDX) and B12 (1 mg/m^2 monthly) supplementation.

[2] = test system: human tumors (mammary, lung) xenograft; conditions: cited from earlier work
[3] = test system: murine L1210 cell line; conditions: cited from earlier work
[4] = biological target: T1, dihydrofolate reductase (DHFR) (Mus musculus, UniProt P00375); conditions: relative to L1210 growth inhibition; cited from earlier work
T1 sequence (P00375 1-187): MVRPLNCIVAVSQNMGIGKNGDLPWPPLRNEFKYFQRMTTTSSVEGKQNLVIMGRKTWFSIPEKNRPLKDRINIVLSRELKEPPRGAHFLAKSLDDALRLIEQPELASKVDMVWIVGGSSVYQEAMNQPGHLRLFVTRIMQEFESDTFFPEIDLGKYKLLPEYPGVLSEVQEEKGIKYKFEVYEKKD

[5] = test system: mesothelioma; conditions: cited from earlier work
[6] = test system: T cell lymphoma; assay: Prior treatment history of the study patients; format: in vivo, human; conditions: Patient 2: Lymphoblastic Lymphoma, Precursor T-cell; MTX May 2002 through February 2004
[7] = Patient 2: Lymphoblastic Lymphoma, Precursor T-cell, Stage IV, PDX 30 mg/m^2 x 3 weeks every 4 weeks, 3 cycles
[8] = Patient 3: HTLV Associated T-cell Lymphoma, PDX 30 mg/m^2 weekly x 3 every 4 weeks x 2 cycles
[9] = Patient 4: Panniculitic T-cell Lymphoma, PDX 30 mg/m^2 weekly x 4

Row | Structure (SMILES) | Overall response of the patients with T-cell lymphoma treated with PDX ([1]; 4 patients, PET imaging) | Toxicities ([1]; Patient 1: Peripheral T-cell Lymphoma, Stage IV, PDX 135 mg/m^2 x 1 dose) | Response ([1]; Patient 1: Peripheral T-cell Lymphoma, Stage IV, PDX 135 mg/m^2 x 1 dose, folic acid and B12 supplementation) | Response [1, 7] | Toxicities [1, 7] | Response [1, 8] | Toxicities [1, 8] | Response [1, 9] | Toxicities [1, 9] | Efficacy against human tumors compared with reference antifolates ([2]; highly purified PDX compositions) | Tumor growth after cessation of therapy ([2]; several weeks after the cessation of therapy) | Inhibition of growth [3] | Inhibition of the enzyme [4] | Efficacy against mesothelioma [5] | Response to prior treatment [6]
1 | C#CCC(Cc1cnc2nc(N)nc(N)c2n1)c1ccc(C(=O)N[C@@H](CCC(=O)O)C(=O)O)cc1 (stereo partly drawn) [PDX, 10-Propargyl-10-deazaaminopterin] | all four have met criteria for complete remission | Grade 3 stomatitis; neutropenia grade 3; sepsis | Essentially complete remission by PET scan | Complete remission by PET and CT scans | None | Complete remission | None | Clinical complete remission by PET | None | far superior to methotrexate; also recorded: superior to edatrexate | no evidence of tumor growth | inhibitor of growth | to a lesser extent | effective against mesothelioma | 
2 | CN(Cc1cnc2nc(N)nc(N)c2n1)c1ccc(C(=O)N[C@@H](CCC(=O)O)C(=O)O)cc1 [methotrexate] |  |  |  |  |  |  |  |  |  |  |  |  |  |  | essentially methotrexate resistant disease
